{"source": "patent US12351556B2", "about": "“Pyridin-2(1H)one derivatives, their preparation and their use for the treatment of pain” (INSTITUT NATIONAL DE LA SANTE ET DE LA RECHERCHE MEDICALE …, priority 2019, dated 2025)", "key": {"[1]": {"tested_on": "inflammatory MA (face CFA model)", "test": "Face Complete Freund's Adjuvant (CFA) model of inflammatory mechanical allodynia", "type": "in vivo", "details": "rat", "procedure": "FIG. 1 illustrates the results obtained by the intracisternal application of compounds 19-24, 66-72 and 74-82. These compounds prevent face MA in a rat model of inflammatory pain (Complete Freund's Adjuvant (CFA), n=4-6 rats for each compound). For this assay, compounds (5 μL at 100 μM) or control vehicle were intra-cisternally administred 30 min before CFA injection.\nFace Complete Freund's Adjuvant (CFA) Model.\nCFA (Becton Dickinson) was dissolved in saline solution containing Tween 80 and paraffin oil and conserved at 4° C. For the behavioral tests, animals were briefly (<2 min) anesthetized using a mask with 2% isoflurane and received a subcutaneous injection of 25 μL of CFA (2.5 mg/kg) solution into the right vibrissa pad using a 27 Ga needle coupled to a 25 μL Hamilton syringe, as described previously. After injection, animals were awakened from anesthesia and placed in the behavioral experimental room, followed by a 120 min mechanical testing period.\nIntracisternal Injection:\nFor investigating the effects of synthetized compounds upon mechanical allodynia, animals were briefly (<2 min) anesthetized using a mask with 2% isoflurane and received an intracisternal injection of 5 μL of compound (100 μM) or vehicle alone (saline+1% DMSO) using a 10 μL Hamilton syringe. After recovery (<2 min), rats were placed in an observation field (0.6×0.6 m square) under red light for a period test. 6-g von Frey filament was gently applied every 15 or 30 min onto the orofacial region by a first experimenter. The behavioral responses were observed and quantified by a second experimenter (see below).\nBehavioral Responses to Normally Innocuous (6-g Von Frey Filament) Mechanical Stimulation.\nThe behavioral responses procedure was previously developed by Vos et al. 1994. A rat's response to mechanical stimulation consisted of one or more of the following elements: (1) detection, rat turn head toward stimulus; (2) withdrawal reaction, rat pull paw away or turn head away or pull it briskly backward when stimulation is applied (a withdrawal reaction is assumed to include a detection element preceding the head withdrawal and therefore consists of two responses elements); (3) escape/attack, rats avoid further contact with the stimulus, either passively by moving their bodies away from the stimulus, or actively by attacking the tip of the […]; (4) asymmetric grooming, rats display an uninterrupted series of at least three wash strokes directed to the stimulated area.\nThe in vivo efficacy of some compounds was evaluated on a rat model of inflammatory MA (face CFA model; Alba-Delgado et al J. Neurosci. 2018, 38, 10489-10504) (FIG. 1). After receiving a subcutaneous injection of 25 μL of CFA (2.5 mg/kg) into the right vibrissa pad, rats develop a MA that lasts days. […] In this model of inflammatory MA, MA was suppressed in compound 69 treated rats, in comparison to animals treated with vehicle (FIG. 2A)."}, "[2]": {"tested_on": "panel of 13 protein kinases", "test": "ICKP screening, whole panel of 13 protein kinases", "type": "biochemical, human", "details": "1 μM", "procedure": "FIG. 4 illustrates the studies carried out for compounds 67 and 69. Compounds 67 and 69 (FIG. 4B) were evaluated at the International Center For Kinase Profiling (ICKP, Dundee, Scotland) toward a panel of 13 protein kinases. The results (FIG. 4A) were expressed as the mean percentage of residual activity at 1 μM concentration (duplicate assays). Small disks: ≥90%, larger disk: 59%, for both compounds. The tree was generated using the Kinome Render software, and the illustration reproduced courtesy of Cell Signaling Technology, Inc. (www.cellsignal.com) Chartier et al PeerJ 2013, 1:e126.\nResults are expressed as the mean percentage of residual activity at 10 μM (Table 3) or 1 μM (Table 4). They are illustrated on FIGS. 3 and 4.\nThe selectivity of compound 69 was evaluated at 1 μM toward another panel containing all four p38 MAPK isoforms, ERK1, ERK2 as well as other protein kinases close to p38α MAPK in the kinome phylogenetic tree (FIG. 4, Table 4). […] Its IC50 toward p38α MAPK was determined, showing a value in the micromolar range (IC50=3.0±0.1 μM)."}, "[3]": {"tested_on": "facial neuropathic MA (IoN-CCl)", "test": "Neuropathic MA: chronic constriction injury of the infraorbital nerve (IoN-CCl)", "type": "in vivo", "details": "rat, intracisternal 5 μL at 100 μM, 14 days after IoN-CCl", "procedure": "Time courses of changes in behavioral responses (allodynic score) evoked by normally innocuous mechanical stimuli (6-g von Frey filament) applied on the face of rats intracisternally treated with compound 69 (5 μL at 100 μM) or vehicle. In A, compound 69 or vehicle was preemptively applied 30 min before subcutaneous injection of CFA (at time 0). In B, compound 69 or vehicle was applied (at time 0) 14 days after IoN-CCl; that is, once a stable MA was established. […] Results are presented as mean±s.e.m.; n=4 (A) and n=5 (B) in each group. Allodynic score (from 0 to 4) according to Vos et al. J. Neurosci. 1994, 14, 2708-2723.\nRat model of neuropathic MA: chronic constriction injury of the rat's infraorbital nerve (IoN-CCl).\nIoN-CCl was performed following a previously established surgical procedure Vos et al J. Neurosci. […]\nFor investigating the effects of synthetized compounds upon mechanical allodynia, animals were briefly (<2 min) anesthetized using a mask with 2% isoflurane and received an intracisternal injection of 5 μL of compound (100 μM) or vehicle alone (saline+1% DMSO) using a 10 μL Hamilton syringe. […] The behavioral responses were observed and quantified by a second experimenter (see below). […]\nCompound 69 was also evaluated in a rat model of facial neuropathic MA produced by the constriction injury of the rat infraorbital nerve (IoN-CCl; J. Neurosci. 1994, 14, 2708-2723) (FIG. 2B). […]"}}, "note": "Entries after “also recorded” stand apart in the source; their conditions may differ."}
{"smiles": "O=c1[nH]cc(Nc2ccccc2)cc1-c1ccccc1Br", "note": "[Compound 69, 3-(2-Bromophenyl)-5-(phenylamino)pyridin-2(1H)-one]", "values": [{"measurement": "prevention of inflammatory MA (allodynic score), compared with skepinone", "setting": "[1]; intracisternal 5 μL at 10 μM or 100 μM, 30 min before CFA, skepinone 60 μg/rat", "value": "completely suppressed; also recorded: much more potent than skepinone"}, {"measurement": "prevention of inflammatory MA (allodynic score, 6-g von Frey filament)", "setting": "[1]; intracisternal 5 μL at 100 μM, 30 min before CFA", "value": "most active; also recorded: high activities; also recorded: potent preventing effect; also recorded: completely suppressed"}, {"measurement": "inhibition of inflammatory MA", "setting": "[1]; intracisternal 5 μL at 100 μM, 30 min before CFA injection", "value": 99, "unit": "%"}, {"measurement": "mean percentage of residual activity, other kinases of the panel (small disks)", "setting": "[2]; all kinases except p38α MAPK", "value": "≥ 90", "unit": "%"}, {"measurement": "selectivity for p38α MAPK over the other protein kinases incl. p38 isoforms", "setting": "[2]; panel of 13 kinases", "value": "selective of p38α MAPK over the other protein kinases tested in this panel; also recorded: selective p38α MAPK inhibitor"}, {"measurement": "reversal of neuropathic MA (allodynic score)", "setting": "[3]", "value": "reversed MA; also recorded: quickly reversed"}]}
